In patent US20200384116A1, “SELF-ASSEMBLING VERTEPORFIN AMPHIPHILES (SAVA) FOR LOCAL CANCER THERAPY” (THE JOHNS HOPKINS UNIVERSITY, priority 2016, published 2020):

Columns and labels:
Type in all cases: cell-based
[1] = test system: SW480, PANC-1, MDA-MD-231, MDA-MD-468 and HELA cell lines; assay: MTT proliferation assay, non-CNS tumor cell lines; conditions: 12.5 μM, 5 or 6 days, in words
Description: (§1) Cells tested were subjected to the following protocol: Day 1: 7000 cells per well were seeded in a 96-well plate. Day 3: cells were treated with 12.5 μM of Verteporfin (treatment group) and its equivalent DMSO concentration (control group) in 200 μl of media/well. Proliferation was assessed using MTT at Day 8, 9 using the following method:
(§2) MTT stock solution (5 mg/ml) is added to each culture being assayed to equal one-tenth the original culture volume and incubated for 4 hr. At the end of the incubation period the medium is removed the converted dye is solubilized with 100% isopropanol. Absorbance of converted dye is measured at a wavelength of 570 nm.
The cell lines SW480 (colon adenocarcinoma), PANC-1 (pancreatic cancer), MDA-MD-231 (breast adenocarcinoma), MDA-MD-468 (metastatic breast carcinoma triple negative), and HELA (cervical carcinoma) were treated with 12.5 μM of the SAVA composition, Ver-RGDR, or DMSO (solvent control) for 5 days (FIG. 5a) or 6 days (FIG. 5b) in culture. Cell proliferation was then assessed using the MTT protocol. […] P-values: All cell lines tested at day 5 and 6 had p<0.0001 compared to their corresponding DMSO control. The results were statistically significant.

[2] = test system: primary patient-derived GBM cell line GBM1A; assay: MTT cell survival, GBM1A; conditions: dose-dependent, vs controls
Description: as §1, §2
(§3) The malignant meningioma cell lines KT21-MG1 (FIG. 7), IOMM-Lee (FIG. 8), the primary patient-derived GBM cell lines, JHGB612 and GBM1A, and a patient-derived primary chordoma cell line, JHC7 (FIG. 9) were all tested with a SAVA composition of the present invention, using the protocol of Example 3. All should significant dose-dependent effect on cell survival when compared to controls.

[3] = test system: patient-derived primary chordoma cell line JHC7; assay: MTT cell survival, JHC7; conditions: dose-dependent, vs controls
Description: as §1, §2, §3

[4] = test system: malignant meningioma cell line KT21-MG1; assay: MTT cell survival, KT21-MG1
Description: (§4) Cells tested were subjected to the following protocol: Day 1: 7000 cells per well were seeded in a 96-well plate. […]
as §2, §3

[5] = test system: primary patient-derived GBM cell line JHGB612; assay: MTT cell survival, JHGB612; conditions: dose-dependent, vs controls
Description: as §1, §2, §3

[6] = test system: malignant meningioma cell line IOMM-Lee; assay: MTT cell survival, IOMM-Lee
Description: as §4, §2, §3

For verteporfin, the “proliferation of non-CNS tumor cells” value [1] was “decreases proliferation”, the “effect on proliferation and cell survival” value [2] was “profound dose dependent effect on glioblastoma proliferation and cell survival” and the “effect on cell survival and proliferation” value [3] was “dose dependent effect on chordoma cell survival and proliferation”. For the same substance, the cell survival ([4]; 3 days of treatment) was “decreases cell survival”, the cell survival ([4]; 5 days of treatment) was “decreases cell survival” and the “effect on proliferation and cell survival” value [5] was “profound dose dependent effect on glioblastoma proliferation and cell survival”. The cell survival ([6]; 3 days of treatment) was “decreases cell survival” and the cell survival ([6]; 5 days of treatment) was “decreases cell survival”.
